Assay results from PubChem BioAssay AID2060883 (Molecular Pharmacology Branch, DTP, NCI, 2025).
pIC50: −log10 of the molar value.

Test system: 843782-103-R-J1-PDC complex spheroid viability
Test: Anticancer human tumor 843782-103-R-J1-PDC patient-derived lung adenocarcinoma cell line growth inhibition [RAS]
Conditions: for pIC50: curve of first compound; for viability, T/C: stronger effect = lower value
Method in brief: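 Tumour cells grown as complex spheroids with HUVEC endothelial cells and mesenchymal stem cells, treated with RAS pathway inhibitor combinations. Each agent spans half-log steps from near clinical Cmax, or 10 microM where Cmax is unknown.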
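Note: viability read after seven days of compound exposure.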

`CC(C)n1nc(-c2ccc3oc(N)nc3c2)c2c(N)ncnc21` + CCn1c(-c2cccnc2C(C)OC)c2c3cc(ccc31)N1CCOC(CC(NC(=O)C(C(C)C)N(C)C(=O)C3(F)CCN(C(=O)C#CC(C)(C)N(C)C)CC3)C(=O)N3CCCC(N3)C(=O)OCC(C)(C)C2)C1 gave a pIC50 (second compound 0.000949 µM) of 8.18, a pIC50 (second compound 0.003 µM) of 8.28 and a pIC50 (second compound 0.00949 µM) of 8.23. For the same compound, the pIC50 (second compound 0.03 µM) was 8.29, the pIC50 (second compound 0.0949 µM) was 8.13 and the pIC50 (second compound 0.3 µM) was 8.45. For the same compound, the viability, T/C (second compound 0.000949 µM, first compound 0.000316 µM) was 84.1%, the viability, T/C (second compound 0.000949 µM, first compound 0.001 µM) was 66.4% and the viability, T/C (second compound 0.000949 µM, first compound 0.00316 µM) was 55.4%. It also gave a viability, T/C (second compound 0.000949 µM, first compound 0.01 µM) of 52.8%, a viability, T/C (second compound 0.000949 µM, first compound 0.0316 µM) of 28.5% and a viability, T/C (second compound 0.000949 µM, first compound 0.1 µM) of 14.9%. For the same compound, the viability, T/C (second compound 0.003 µM, first compound 0.000316 µM) was 78.1%, the viability, T/C (second compound 0.003 µM, first compound 0.001 µM) was 72.7% and the viability, T/C (second compound 0.003 µM, first compound 0.00316 µM) was 52.9%. It also gave a viability, T/C (second compound 0.003 µM, first compound 0.01 µM) of 44.4%, a viability, T/C (second compound 0.003 µM, first compound 0.0316 µM) of 27.1% and a viability, T/C (second compound 0.003 µM, first compound 0.1 µM) of 18.3%. The viability, T/C (second compound 0.00949 µM, first compound 0.000316 µM) was 72.7%, the viability, T/C (second compound 0.00949 µM, first compound 0.001 µM) was 62.8% and the viability, T/C (second compound 0.00949 µM, first compound 0.00316 µM) was 57.3%. For the same compound, the viability, T/C (second compound 0.00949 µM, first compound 0.01 µM) was 46.1%, the viability, T/C (second compound 0.00949 µM, first compound 0.0316 µM) was 28% and the viability, T/C (second compound 0.00949 µM, first compound 0.1 µM) was 15.5%. The viability, T/C (second compound 0.03 µM, first compound 0.000316 µM) was 70.4%, the viability, T/C (second compound 0.03 µM, first compound 0.001 µM) was 69.9% and the viability, T/C (second compound 0.03 µM, first compound 0.00316 µM) was 53.6%. For the same compound, the viability, T/C (second compound 0.03 µM, first compound 0.01 µM) was 42.7%, the viability, T/C (second compound 0.03 µM, first compound 0.0316 µM) was 25.3% and the viability, T/C (second compound 0.03 µM, first compound 0.1 µM) was 17.1%. It also gave a viability, T/C (second compound 0.0949 µM, first compound 0.000316 µM) of 73%, a viability, T/C (second compound 0.0949 µM, first compound 0.001 µM) of 64% and a viability, T/C (second compound 0.0949 µM, first compound 0.00316 µM) of 70.5%. The viability, T/C (second compound 0.0949 µM, first compound 0.01 µM) was 42.1%, the viability, T/C (second compound 0.0949 µM, first compound 0.0316 µM) was 25.6% and the viability, T/C (second compound 0.0949 µM, first compound 0.1 µM) was 15.8%. For the same compound, the viability, T/C (second compound 0.3 µM, first compound 0.000316 µM) was 71.3%, the viability, T/C (second compound 0.3 µM, first compound 0.001 µM) was 66.7% and the viability, T/C (second compound 0.3 µM, first compound 0.00316 µM) was 47.3%. The viability, T/C (second compound 0.3 µM, first compound 0.01 µM) was 40.3%, the viability, T/C (second compound 0.3 µM, first compound 0.0316 µM) was 23.7% and the viability, T/C (second compound 0.3 µM, first compound 0.1 µM) was 12.6%.
Work on `CC1(C)CCC(Nc2ncc(C(F)(F)F)c(-c3c[nH]c4c(P(C)(C)=O)c(C#N)ccc34)n2)CN1` (configuration not stated) + C=CC(=O)N1CCN(c2nc(OCC3CCCN3C)nc3c(F)c(-c4nc(N)cc(C)c4C(F)(F)F)c(Cl)cc23)C(C)C1 yielded a pIC50 (second compound 0.00316 µM) of 8.18, a pIC50 (second compound 0.01 µM) of 8.14 and a pIC50 (second compound 0.0316 µM) of 8.10. For the same compound, the pIC50 (second compound 0.1 µM) was 8.24, the pIC50 (second compound 0.316 µM) was 8.17 and the pIC50 (second compound 1 µM) was 8.16. The viability, T/C (second compound 0.00316 µM, first compound 0.000949 µM) was 85.3%, the viability, T/C (second compound 0.00316 µM, first compound 0.003 µM) was 72.8% and the viability, T/C (second compound 0.00316 µM, first compound 0.00949 µM) was 38.8%. For the same compound, the viability, T/C (second compound 0.00316 µM, first compound 0.03 µM) was 25.7%, the viability, T/C (second compound 0.00316 µM, first compound 0.0949 µM) was 13.6% and the viability, T/C (second compound 0.00316 µM, first compound 0.3 µM) was 21.5%. For the same compound, the viability, T/C (second compound 0.01 µM, first compound 0.000949 µM) was 89.1%, the viability, T/C (second compound 0.01 µM, first compound 0.003 µM) was 75.6% and the viability, T/C (second compound 0.01 µM, first compound 0.00949 µM) was 42%. For the same compound, the viability, T/C (second compound 0.01 µM, first compound 0.03 µM) was 23%, the viability, T/C (second compound 0.01 µM, first compound 0.0949 µM) was 18.5% and the viability, T/C (second compound 0.01 µM, first compound 0.3 µM) was 18.8%. The viability, T/C (second compound 0.0316 µM, first compound 0.000949 µM) was 82.7%, the viability, T/C (second compound 0.0316 µM, first compound 0.003 µM) was 81.2% and the viability, T/C (second compound 0.0316 µM, first compound 0.00949 µM) was 44.5%. It also gave a viability, T/C (second compound 0.0316 µM, first compound 0.03 µM) of 22.1%, a viability, T/C (second compound 0.0316 µM, first compound 0.0949 µM) of 20.6% and a viability, T/C (second compound 0.0316 µM, first compound 0.3 µM) of 18%. The viability, T/C (second compound 0.1 µM, first compound 0.000949 µM) was 87.8%, the viability, T/C (second compound 0.1 µM, first compound 0.003 µM) was 70% and the viability, T/C (second compound 0.1 µM, first compound 0.00949 µM) was 35.7%. The viability, T/C (second compound 0.1 µM, first compound 0.03 µM) was 18.3%, the viability, T/C (second compound 0.1 µM, first compound 0.0949 µM) was 19.3% and the viability, T/C (second compound 0.1 µM, first compound 0.3 µM) was 18.9%. For the same compound, the viability, T/C (second compound 0.316 µM, first compound 0.000949 µM) was 87.3%, the viability, T/C (second compound 0.316 µM, first compound 0.003 µM) was 72.7% and the viability, T/C (second compound 0.316 µM, first compound 0.00949 µM) was 40.9%. For the same compound, the viability, T/C (second compound 0.316 µM, first compound 0.03 µM) was 21.7%, the viability, T/C (second compound 0.316 µM, first compound 0.0949 µM) was 19.3% and the viability, T/C (second compound 0.316 µM, first compound 0.3 µM) was 19.6%. For the same compound, the viability, T/C (second compound 1 µM, first compound 0.000949 µM) was 95.3%, the viability, T/C (second compound 1 µM, first compound 0.003 µM) was 69.8% and the viability, T/C (second compound 1 µM, first compound 0.00949 µM) was 45%. For the same compound, the viability, T/C (second compound 1 µM, first compound 0.03 µM) was 23.5%, the viability, T/C (second compound 1 µM, first compound 0.0949 µM) was 19.5% and the viability, T/C (second compound 1 µM, first compound 0.3 µM) was 23.7%.
For `Cc1nc(N2CCC3(CC2)COC(C)C3N)c(CO)nc1Sc1ccnc(N)c1Cl` (configuration not stated), the viability, T/C (compound 0.0316 µM) was 105% [middle of 4 runs], the viability, T/C (compound 3.16 µM) was 64.6% [middle of 4 runs] and the viability, T/C (compound 10 µM) was 49% [middle of 4 runs].
